Results: patent US9493444B2 (Merck Patent GmbH, priority 2012, dated 2016)

These compounds were tested on Wnt pathway (TCF-dependent transcription in HEK293 luciferase reporter cell line with ER-DSH construct) (assay: Cellular assay for Wnt pathway activity (luciferase reporter)). Details: Homo sapiens; Wnt pathway inhibition, HEK293 luciferase reporter cells (ER-DSH, TCF promoter), 24 hours incubation, estrogen-induced.
Type: cell-based
Protocol: 1. Cellular Assay for Wnt Pathway Activity
Compounds were tested for their Wnt pathway inhibitory activities using a luciferase reporter cell based assay. A HEK293 luciferase reporter cell line was used which contained an Estrogen Receptor-Dishevelled (ER-DSH) construct and a T-Cell Factor (TCF) dependent gene promoter luciferase construct.
Compounds, in concentrations from 30 μM down to 1 nM, were incubated for 24 hours on the cells, which were induced for TCF-dependent transcription by the addition of estrogen (10). Luciferase activities were determined using the ONE GLO Luciferase Assay System (Promega) and the ENVISION microplate reader (Perkin Elmer). For analysis, the obtained data were normalized against the untreated vehicle control and fitted for determination of the IC50 values using the Assay Explorer software (Accelrys).

Row | SMILES | IC50 [nM]
1 | CCOc1ccc(-c2ccc(Oc3cncc(N(C)CCN(C)C(C)=O)n3)cc2)c(F)c1F [Compound 180, N-(2-{[6-(4′-Ethoxy-2′,3′-difluoro-biphenyl-4-yloxy)-pyrazin-2-yl]-methyl-amino}-ethyl)-N-methyl-acetamide] | 200 to 1000
2 | CC(=O)N(C)CCN(C)c1cncc(Oc2ccc(N3CCCCC3=O)cc2)n1 [Compound 86, N-Methyl-N-[2-(methyl-{6-[4-(2-oxo-piperidin-1-yl)-phenoxy]-pyrazin-2-yl}-amino)-ethyl]-acetamide] | 200 to 1000
3 | CC(=O)N(C)CCN(C)c1cncc(Oc2ccc(-c3cnc4ccccc4c3)cc2)n1 [Compound 207, N-Methyl-N-(2-{methyl-[6-(4-quinolin-3-yl-phenoxy)-pyrazin-2-yl]-amino}-ethyl)-acetamide] | 200 to 1000
4 | COc1ccc(Oc2cncc(N3CCCC(CNC(C)=O)C3)n2)cc1 (centres unmarked) [Compound 49, N-{1-[6-(4-Methoxy-phenoxy)-pyrazin-2-yl]-piperidin-3-ylmethyl}-acetamide] | 1000 to 10000
5 | COc1ccc(Oc2cncc(N(C)CCN(C)C(C)=O)n2)cc1OC [Compound 140, N-(2-{[6-(3,4-Dimethoxy-phenoxy)-pyrazin-2-yl]-methyl-amino}-ethyl)-N-methyl-acetamide] | 1000 to 10000
6 | CC(=O)Nc1cccc(-c2ccc(Oc3cncc(CCCN(C)C(C)=O)n3)cc2)n1 [Compound 218, N-(3-{6-[4-(6-Acetylamino-pyridin-2-yl)-phenoxy]-pyrazin-2-yl}-propyl)-N-methyl-acetamide] | 200 to 1000
7 | CC(=O)N(C)CCNc1cncc(Oc2ccc(-c3ccnc(C#N)c3)cc2)n1 [Compound 288, N-(2-{6-[4-(2-Cyano-pyridin-4-yl)-phenoxy]-pyrazin-2-ylamino}-ethyl)-N-methyl-acetamide] | 1000 to 10000
8 | CC(=O)N(C)CCN(C)c1cncc(Oc2ccc(C(=O)c3ccco3)cc2)n1 [Compound 157, N-[2-({6-[4-(Furan-2-carbonyl)-phenoxy]-pyrazin-2-yl}-methyl-amino)-ethyl]-N-methyl-acetamide] | < 200
9 | CC(=O)N(C)CCN(C)c1cncc(Oc2ccc(-c3ncnc4[nH]ccc34)cc2)n1 [Compound 191, N-Methyl-N-[2-(methyl-{6-[4-(7H-pyrrolo[2,3-d]pyrimidin-4-yl)-phenoxy]-pyrazin-2-yl}-amino)-ethyl]-acetamide] | < 200
10 | CCN(CCN(C)c1cncc(Oc2ccc(OC)cc2)n1)C(C)=O [Compound 77, N-Ethyl-N-(2-{[6-(4-methoxy-phenoxy)-pyrazin-2-yl]-methyl-amino}-ethyl)-acetamide] | < 200
11 | CC(=O)N(C)CCN(C)c1cncc(Oc2ccc3c(c2)OCO3)n1 [Compound 91, N-(2-{[6-(Benzo[1,3]dioxol-5-yloxy)-pyrazin-2-yl]-methyl-amino}-ethyl)-N-methyl-acetamide] | 200 to 1000
12 | CC(=O)N(C)CCNc1cncc(Oc2ccc(-c3ccncc3C#N)cc2F)n1 [Compound 257, N-(2-{6-[4-(3-Cyano-pyridin-4-yl)-2-fluoro-phenoxy]-pyrazin-2-ylamino}-ethyl)-N-methyl-acetamide] | 200 to 1000
13 | COc1ccc(-c2ccc(Oc3cncc(N(C)CCN(C)C(C)=O)n3)cc2)nc1 [Compound 163, N-[2-({6-[4-(5-Methoxy-pyridin-2-yl)-phenoxy]-pyrazin-2-yl}-methyl-amino)-ethyl]-N-methyl-acetamide] | < 200
14 | CC(=O)N(C)CCN(C)c1cncc(Oc2ccc(-c3ccncc3)cc2)n1 [Compound 203, N-Methyl-N-(2-{methyl-[6-(4-pyridin-4-yl-phenoxy)-pyrazin-2-yl]-amino}-ethyl)-acetamide] | < 200
15 | COc1ccc(Oc2cncc(N(C)CCN(C)C(=O)C(F)(F)F)n2)cc1 [Compound 79, 2,2,2-Trifluoro-N-(2-{[6-(4-methoxy-phenoxy)-pyrazin-2-yl]-methyl-amino}-ethyl)-N-methyl-acetamide] | 1000 to 10000
16 | CC(=O)N(C)CCN(C)c1cncc(Oc2ccc(-c3cccc(N)n3)cc2)n1 [Compound 205, N-[2-({6-[4-(6-Amino-pyridin-2-yl)-phenoxy]-pyrazin-2-yl}-methyl-amino)-ethyl]-N-methyl-acetamide] | < 200
17 | CC(N)C(=O)N(C)CCN(C)c1cncc(Oc2ccc(F)cc2)n1 (centres unmarked) [Compound 308, 2-Amino-N-(2-{[6-(4-fluoro-phenoxy)-pyrazin-2-yl]-methyl-amino}-ethyl)-N-methyl-propionamide] | 1000 to 10000
18 | CC(=O)N(C)CCN(C)c1cncc(Oc2ccc(-c3cccnc3)c(F)c2F)n1 [Compound 279, N-(2-{[6-(2,3-Difluoro-4-pyridin-3-yl-phenoxy)-pyrazin-2-yl]-methyl-amino}-ethyl)-N-methyl-acetamide] | < 200

Row | SMILES | IC50 [nM]
19 | CC(=O)N(C)CCNc1cncc(Oc2ccc(-c3cncc(S(C)(=O)=O)c3)cc2)n1 [Compound 275, N-(2-{6-[4-(5-Methane-sulfonyl-pyridin-3-yl)-phenoxy]-pyrazin-2-ylamino}-ethyl)-N-methyl-acetamide] | 1000 to 10000
20 | N#Cc1cnccc1-c1ccc(Oc2cncc(NCCN3CCCCC3=O)n2)cc1 [Compound 296, 4-(4-{6-[2-(2-Oxo-piperidin-1-yl)-ethylamino]-pyrazin-2-yloxy}-phenyl)-nicotinonitrile] | 200 to 1000
21 | CN(CCN(C)c1cncc(Oc2ccc(F)cc2)n1)C(=O)CN(C)C(=O)OC(C)(C)C [Compound 285, {[(2-{[6-(4-Fluoro-phenoxy)-pyrazin-2-yl]-methyl-amino}-ethyl)-methyl-carbamoyl]-methyl}-methyl-carbamic acid tert-butyl ester] | 1000 to 10000
22 | CC(=O)Nc1ccc(-c2ccc(Oc3cncc(N(C)CCN(C)C(C)=O)n3)c(F)c2)cn1 [Compound 225, N-[2-({6-[4-(6-Acetylamino-pyridin-3-yl)-2-fluoro-phenoxy]-pyrazin-2-yl}-methyl-amino)-ethyl]-N-methyl-acetamide] | < 200
23 | CC(=O)N(C)CCN(C)c1cncc(Oc2ccc(-c3ncccn3)cc2)n1 [Compound 161, N-Methyl-N-(2-{methyl-[6-(4-pyrimidin-2-yl-phenoxy)-pyrazin-2-yl]-amino}-ethyl)-acetamide] | 200 to 1000
24 | CC(=O)N(C)CCN(C)c1cncc(Oc2noc3ccccc23)n1 [Compound 224, N-(2-{[6-(Benzo[d]isoxazol-3-yloxy)-pyrazin-2-yl]-methyl-amino}-ethyl)-N-methyl-acetamide] | < 200
25 | CC(=O)N(C)CCN(C)c1cncc(Oc2ccc(-c3ccc(N4CCOCC4)nc3)cc2)n1 [Compound 175, N-Methyl-N-[2-(methyl-{6-[4-(6-morpholin-4-yl-pyridin-3-yl)-phenoxy]-pyrazin-2-yl}-amino)-ethyl]-acetamide] | < 200
26 | CC(=O)N(C)CCN(C)c1cncc(Oc2ccc(-c3noc(C)n3)cc2)n1 [Compound 146, N-Methyl-N-[2-(methyl-{6-[4-(5-methyl-[1,2,4]oxadiazol-3-yl)-phenoxy]-pyrazin-2-yl}-amino)-ethyl]-acetamide] | 200 to 1000
27 | COc1ccc(Oc2cncc(N(C)CCN(C)C(=O)Cc3sccc3Cl)n2)cc1 [Compound 53, 2-(3-Chloro-thiophen-2-yl)-N-(2-{[6-(4-methoxy-phenoxy)-pyrazin-2-yl]-methyl-amino}-ethyl)-N-methyl-acetamide] | 1000 to 10000
28 | CCOc1ccc(Oc2cncc(N(C)CCN(C)C(C)=O)n2)cc1 [Compound 123, N-(2-{[6-(4-Ethoxy-phenoxy)-pyrazin-2-yl]-methyl-amino}-ethyl)-N-methyl-acetamide] | < 200
29 | CC(=O)N(C)CCN(C)c1cncc(Oc2ccc(-c3ccc(F)cn3)cc2F)n1 [Compound 226, N-[2-({6-[2-Fluoro-4-(5-fluoro-pyridin-2-yl)-phenoxy]-pyrazin-2-yl}-methyl-amino)-ethyl]-N-methyl-acetamide] | < 200
30 | COc1ccc(Oc2cncc(NCC3CCCN(C(C)=O)C3)n2)cc1 (centres unmarked) [Compound 38, 1-(3-{[6-(4-Methoxy-phenoxy)-pyrazin-2-ylamino]-methyl}-piperidin-1-yl)-ethanone] | 1000 to 10000
31 | CC(=O)N(C)CCN(C)c1cncc(Oc2ccc3c(c2)CCC3)n1 [Compound 92, N-(2-{[6-(Indan-5-yloxy)-pyrazin-2-yl]-methyl-amino}-ethyl)-N-methyl-acetamide] | < 200
32 | CC(=O)N(C)CCN(C)c1cncc(Oc2ccc(B(O)O)cc2)n1 [Compound 7, 4-(6-{[2-(Acetyl-methyl-amino)-ethyl]-methyl-amino}-pyrazin-2-yloxy)-boronic acid] | 200 to 1000
33 | CC(=O)N(C)CCN(C)c1cncc(Oc2ccc(-c3cnc(N)cn3)cc2)n1 [Compound 185, N-[2-({6-[4-(5-Amino-pyrazin-2-yl)-phenoxy]-pyrazin-2-yl}-methyl-amino)-ethyl]-N-methyl-acetamide] | < 200
34 | CC(=O)N(C)CCN(C)c1cncc(Oc2ccc(-c3nc4cc(C#N)ccc4[nH]3)cc2)n1 [Compound 124, N-[2-({6-[4-(5-Cyano-1H-benzo-imidazo-2-yl)-phenoxy]-pyrazin-2-yl}-methyl-amino)-ethyl]-N-methyl-acetamide] | 200 to 1000
35 | CC(=O)N(C)CCN(C)c1cncc(Oc2ccc(-c3ccc(CN(C)C(=O)CCCCCNC(=O)CCCCC4SCC5NC(=O)NC54)nc3)cc2)n1 (centres unmarked) [Compound 272, 6-[5-(2-Oxo-hexahydro-thieno[3,4-d]imidazol-6-yl)-pentanoyl-amino]-hexanoic acid {5-[4-(6-{[2-(acetyl-methyl-amino)-ethyl]-methyl-amino}-pyrazin-2-yloxy)-phenyl]-pyridin-2-ylmethyl}-methyl-amide] | < 200
